Laboratory results from US9895344B2, “Treating various disorders with 7,8-dihydroxyflavone and derivatives thereof” (EMORY UNIVERSITY, priority 2008, dated 2018).

How the values were obtained:
Type in all cases: cell-based
TrkB = TrkB (Rattus norvegicus, UniProt Q63604); test: Western analysis of TrkB activation in hippocampal neurons; parameters: endogenous in cells; host or cells: primary hippocampal neurons; settings: FIG. 10
Protocol: To further examine whether 7,8-dihydroxyflavone can stimulate TrkB-mediated downstream signaling cascades, Western analysis was performed.
To further test that the stimulatory effect of 7,8-dihydroxyflavone is mediated through TrkB, cells were either untreated or treated with K252a, a selective inhibitor of the tyrosine kinase activity of the Trk family of neutrophin receptors.

Akt and Erk1/2 = Akt and Erk1/2 activation in cortical neurons from TrkB F616A knockin mice; settings: inhibitor 100 nM
Protocol: (§1) To explore whether the neuroprotective action of 7,8-dihydroxyflavone is dependent on TrkB activation in vivo, TrkB F616A knockin mice were used. […] To further assess whether 7,8-dihydroxyflavone can mimic BDNF, cortical neurons were prepared from TrkB F616A knockin mice. The cortical neurons were pretreated for 30 minutes with either K252a Trk tyrosine kinase inhibitor (100 nM) or 1NMPP1 inhibitor (100 nM) followed by 0.5 μM 7,8-dihydroxyflavone for 30 minutes.

TrkB F616A = target: T1, TrkB F616A (Mus musculus, UniProt P15209, F616A); test: TrkB phosphorylation in cortical neurons from TrkB F616A knockin mice; settings: inhibitor 100 nM, pretreated 30 minutes
T1 construct: endogenous in cells; host or cells: cortical neurons of TrkB F616A knock-in mice
T1 sequence (P15209 32-821 F616A): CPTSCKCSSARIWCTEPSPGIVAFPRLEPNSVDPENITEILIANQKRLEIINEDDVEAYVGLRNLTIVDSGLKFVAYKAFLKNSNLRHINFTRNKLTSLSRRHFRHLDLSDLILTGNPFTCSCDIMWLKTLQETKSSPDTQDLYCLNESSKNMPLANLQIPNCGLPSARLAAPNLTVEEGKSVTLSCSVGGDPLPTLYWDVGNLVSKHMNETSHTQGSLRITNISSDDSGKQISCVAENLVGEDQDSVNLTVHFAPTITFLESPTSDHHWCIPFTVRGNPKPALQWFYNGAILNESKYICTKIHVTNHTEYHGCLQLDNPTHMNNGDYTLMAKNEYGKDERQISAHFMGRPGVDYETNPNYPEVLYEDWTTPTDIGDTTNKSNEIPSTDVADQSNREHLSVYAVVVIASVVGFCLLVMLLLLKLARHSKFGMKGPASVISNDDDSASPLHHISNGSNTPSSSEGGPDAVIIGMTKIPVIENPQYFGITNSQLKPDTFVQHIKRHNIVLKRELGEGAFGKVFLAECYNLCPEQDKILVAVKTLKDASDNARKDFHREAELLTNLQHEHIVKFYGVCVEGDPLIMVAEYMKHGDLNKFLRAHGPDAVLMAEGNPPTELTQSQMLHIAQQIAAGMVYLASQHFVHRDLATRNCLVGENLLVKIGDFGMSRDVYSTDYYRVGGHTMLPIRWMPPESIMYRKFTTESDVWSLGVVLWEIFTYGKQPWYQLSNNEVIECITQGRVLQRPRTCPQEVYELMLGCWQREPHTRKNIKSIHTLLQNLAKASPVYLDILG
Protocol: as §1

Chain of TrkB (Q63604 32-821): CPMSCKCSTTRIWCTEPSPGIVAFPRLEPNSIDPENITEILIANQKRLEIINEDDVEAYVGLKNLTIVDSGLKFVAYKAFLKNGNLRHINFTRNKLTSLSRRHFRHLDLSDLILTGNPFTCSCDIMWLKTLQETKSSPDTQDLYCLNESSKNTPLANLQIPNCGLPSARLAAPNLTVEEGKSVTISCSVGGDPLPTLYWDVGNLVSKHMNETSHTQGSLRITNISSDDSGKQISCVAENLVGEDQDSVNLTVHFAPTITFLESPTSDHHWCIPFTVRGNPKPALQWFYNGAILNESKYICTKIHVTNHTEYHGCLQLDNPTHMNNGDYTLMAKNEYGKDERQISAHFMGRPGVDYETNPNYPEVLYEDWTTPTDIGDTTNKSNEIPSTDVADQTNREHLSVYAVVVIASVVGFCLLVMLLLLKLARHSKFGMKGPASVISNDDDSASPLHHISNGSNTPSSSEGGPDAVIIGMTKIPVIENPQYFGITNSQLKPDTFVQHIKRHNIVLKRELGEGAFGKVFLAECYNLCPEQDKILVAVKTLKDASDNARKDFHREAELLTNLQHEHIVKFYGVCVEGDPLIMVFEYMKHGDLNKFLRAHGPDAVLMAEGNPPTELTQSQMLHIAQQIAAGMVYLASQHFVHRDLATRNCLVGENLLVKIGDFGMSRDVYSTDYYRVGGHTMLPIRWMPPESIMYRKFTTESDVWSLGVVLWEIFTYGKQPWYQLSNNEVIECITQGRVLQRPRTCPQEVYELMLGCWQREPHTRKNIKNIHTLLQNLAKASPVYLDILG

COC(=O)[C@@]1(O)C[C@H]2O[C@]1(C)n1c3ccccc3c3c4c(c5c6ccccc6n2c5c31)C(=O)NC4 [K252a]
effect on TrkB tyrosine phosphorylation in cells exposed to 7,8-dihydroxyflavone (TrkB): blocked TrkB tyrosine phosphorylation | blocking of BDNF-triggered Akt and Erk1/2 activation (Akt and Erk1/2): not | blocking of BDNF-provoked TrkB phosphorylation (TrkB F616A): not | blocking of 7,8-dihydroxyflavone-provoked TrkB phosphorylation (TrkB F616A; 0.5 μM 7,8-dihydroxyflavone): not
